One data set relates to Nostz rat. In words: Antidiabetic activity in the Nostz rat (non-insulin-dependent diabetes induced using streptozotocin). The conditions noted are these: po, 2 h, blood 2 h after final administration, diabetic rats, read-out: percentage change in glycaemia relative to d0 (before treatment); for change in vivo at 20 mg/kg: 20 mg/kg/d oral; for change in vivo at 200 mg/kg: 200 mg/kg/d oral. It counts as in vivo. The protocol: The antidiabetic activity of the compounds of formula (I) was determined orally on an experimental model of non-insulin-dependent diabetes induced in the rat using streptozotocin.
The model of non-insulin-dependent diabetes is obtained in rats by neonatal injection (on the day of birth) of streptozotocin.
The diabetic rats used are 8 weeks old. The animals are kept from the day of their birth to the day of the experiment in an animal house at a regulated temperature of from 21 to 22° C. and are subjected to a fixed cycle of light (from 7.00 am to 7.00 pm) and darkness (from 7.00 pm to 7.00 am). Their diet consisted of a maintenance diet; water and food were provided ad libitum, except for the 2 hours fasting prior to the tests in which food is withdrawn (post-absorptive state).
The rats are treated orally for one (d1) or four (d4) days with the test product. Two hours after the final administration of the product and 30 minutes after anaesthesia of the animals with sodium pentobarbital (Nembutalo®), […] of blood is sampled from the end of the tail.

For orientation: melting point means the temperature, or range, at which the solid turns liquid.

Structures can show the parent of a compound that is named as a salt. Where two headings read alike, the source gives them in different places. Where only a bound is given, the exact number is not on record here.

Take `Cc1cccc(C)c1NC(=O)[C@H](CC(C)C)NC(=N)N` [Compound 9]: in the data set with Nostz rat (d1 (one day of treatment)), the change in vivo at 20 mg/kg was -4% and the change in vivo at 200 mg/kg amounted to 7%. In the data set on Nostz rat (d4 (four days of treatment)), the change in vivo at 20 mg/kg is -15% and the change in vivo at 200 mg/kg is -4%.

Turning to `N=C(N)NCC(=O)Nc1c(Cl)cccc1Cl` (as salt: HCl) [Compound 12], the melting point is 181 to 183 °C.

Regarding `Cc1cccc(C)c1NC(=O)[C@H](C(C)C)N(C)C(=N)N` [Compound 10], in the data set on Nostz rat (d1 (one day of treatment)), the change in vivo at 20 mg/kg is -13% and the change in vivo at 200 mg/kg is -3%. Also, in the data set on Nostz rat (d4 (four days of treatment)), the change in vivo at 20 mg/kg is -15% and the change in vivo at 200 mg/kg was -16%.

`CC(C)c1cccc(C(C)C)c1NC(=O)CNC(=N)N` (as salt: HCl) [Compound 2] showed a melting point of 260 to 262 °C.

In turn, `N=C(N)NCC(=O)N(Cc1ccccc1)Cc1ccccc1` (as salt: HCl) [Compound 11] gave a melting point of 217 to 219 °C.

For the compound `N=C(N)NCC(=O)N(Cc1ccccc1)Cc1ccccc1` [Compound 11], the results for the change in vivo at 20 mg/kg with Nostz rat (d1 (one day of treatment)) and in the data set with Nostz rat (d4 (four days of treatment)) were -14% and -9%, respectively. In addition, the change in vivo at 200 mg/kg in the data set on Nostz rat (d1 (one day of treatment)) is -3%; in the data set on Nostz rat (d4 (four days of treatment)), -16%.

Regarding `Cc1cccc(C)c1NC(=O)[C@H](C)NC(=N)N` [Compound 6], in the data set on Nostz rat (d1 (one day of treatment)), the change in vivo at 20 mg/kg turned out to be 8% and the change in vivo at 200 mg/kg is -4%. Besides, in the data set with Nostz rat (d4 (four days of treatment)), the change in vivo at 20 mg/kg was -3% and the change in vivo at 200 mg/kg was -18%.

The compound `Cc1cccc(C)c1NC(=O)CNC(=N)N` [Example 1] registered a melting point of 255 to 257 °C. Besides, in the data set with Nostz rat (d1 (one day of treatment)), the change in vivo at 20 mg/kg is -3% and the change in vivo at 200 mg/kg was -20%. Further, in the data set on Nostz rat (d4 (four days of treatment)), the change in vivo at 20 mg/kg is -7% and the change in vivo at 200 mg/kg is -24%.

In the case of `CSc1cc(C)nc(SC)c1NC(=O)CNC(=N)N` [Example 3], the change in vivo at 20 mg/kg with Nostz rat (d1 (one day of treatment)) was 7%; in the data set on Nostz rat (d4 (four days of treatment)), -7%. Also, the change in vivo at 200 mg/kg is -5% with Nostz rat (d1 (one day of treatment)) and -4% with Nostz rat (d4 (four days of treatment)).

`CCC(C)[C@H](NC(=N)N)C(=O)Nc1c(C)cccc1C` (stereo partly drawn) [Compound 8]: the change in vivo at 20 mg/kg is -11% in the data set with Nostz rat (d1 (one day of treatment)) and -14% in the data set with Nostz rat (d4 (four days of treatment)). The change in vivo at 200 mg/kg in the data set with Nostz rat (d1 (one day of treatment)) is -8%; in the data set with Nostz rat (d4 (four days of treatment)) it was -10%.

For the compound `N=C(N)NCC(=O)NCc1ccccc1` (as salt: HCl) [Compound 15], the melting point lay in the range of 144 to 146 °C.

Turning to `Cc1cccc(C)c1NC(=O)[C@H](C)NC(=N)N` (as salt: HCl) [Compound 6], the melting point fell in the range of 159 to 161 °C.

In turn, `Cc1cc(C)c(NC(=O)CNC(=N)N)c(C)c1` (as salt: HCl) [Compound 7] displayed a melting point of more than 260 °C.

In turn, `CSc1cc(C)nc(SC)c1NC(=O)CNC(=N)N` (as salt: HCl) [Example 3] returned a melting point of 249 to 251 °C.

`Cc1cc(C)c(NC(=O)CNC(=N)N)c(C)c1` [Compound 7]: the change in vivo at 20 mg/kg with Nostz rat (d1 (one day of treatment)) and in the data set on Nostz rat (d4 (four days of treatment)) was -9% throughout. Besides, the change in vivo at 200 mg/kg with Nostz rat (d1 (one day of treatment)) is -3%; in the data set on Nostz rat (d4 (four days of treatment)), -10%.

In turn, `Cc1cccc(C)c1NC(=O)CN(C)C(=N)N` (as salt: HCl) [Example 5] yielded a melting point of 227 to 229 °C.

With `Cc1cccc(C)c1NC(=O)CCNC(=N)N` [Example 4], the melting point fell in the range of 223 to 225 °C. In the data set on Nostz rat (d1 (one day of treatment)), the change in vivo at 20 mg/kg is -1% and the change in vivo at 200 mg/kg is -13%. Further, in the data set on Nostz rat (d4 (four days of treatment)), the change in vivo at 20 mg/kg was -11% and the change in vivo at 200 mg/kg is -15%.

On to `N=C(N)NCC(=O)Nc1c(Cl)cccc1Cl` [Compound 12], for which, in the data set on Nostz rat (d1 (one day of treatment)), the change in vivo at 20 mg/kg was -9% and the change in vivo at 200 mg/kg was -14%. Also, in the data set on Nostz rat (d4 (four days of treatment)), the change in vivo at 20 mg/kg was -13% and the change in vivo at 200 mg/kg is -27%.

For `Cc1cccc(C)c1NC(=O)CN(C)C(=N)N` [Example 5], in the data set on Nostz rat (d1 (one day of treatment)), the change in vivo at 20 mg/kg was -2% and the change in vivo at 200 mg/kg is -16%. Besides, in the data set with Nostz rat (d4 (four days of treatment)), the change in vivo at 20 mg/kg was -7% and the change in vivo at 200 mg/kg was -25%.

The record behind these values is patent US6518458B1, “(Aminoiminomethyl) amino) alkane-carboxamides and their applications in therapy” (Merck Patent GmbH, priority 1999, dated 2003).
